Assay results: BindingDB's records for doi:10.1016/j.bioorg.2016.08.005 (Comsats Institute of Information Technology, 2016)

Tests used:
[1] = target: Aldo-keto reductase family 1 member B1 [K65Q] (Bos taurus, UniProt P16116, K65Q); test: ALR2 in vitro Inhibition Assay
Experimental: The activity of ALR2 enzyme was determined at 340 nm in UV spectrophotometer that depends upon the measurement of NADPH consumption. Each well of the 96-well plate contains 200 µL of assay mixture consisting of potassium phosphate buffer 100 mMat 6.2 pH, 20 µL of 10 mM test sample, 70 µL of enzyme preparation and substrate D,L-glyceraldehyde (40 µL), all mixture was incubated at 37 °C for 5 min and then 0.1 mM NADPH (50 µL) was added as a cofactor in the enzyme reaction and read was measured at 340 nm and followed by incubation at 37 °C for 10 min and thenabsorbance was measured in Eliza plate reader at respective wavelength. Negative and positive control used were 10 m M buffer (20 µL) and 10 mM sulindac (20 µL) [Med. Chem. Commun., 5:1371-1380].

[2] = target: Aldo-keto reductase family 1 member A1 (Bos taurus, UniProt Q3ZCJ2); test: ALR1 in vitro Inhibition Assay; details: pH 6.2
Experimental: The assay results were obtained at 340 nm and ALR1 inhibitory activity was measured with the absorbance change at this respective wavelength. Each well contains 200 µL of assay mixture containing potassium phosphate buffer 100 mM at pH 6.2 with test sample 20 µL of 10 mM, 70 µL enzyme preparation and 40 µL of10 mM sodium D-glucoronic acid as a substrate. This mixture was incubated at 37 °C for 5 min and 50 µL of 0.1 mM NADPH as a cofactor was added and the read was obtained at 340 nm. The assay mixture was incubated again at 37 °C for 10 min and the read was taken at the respective UV range in ELIZA plate reader. As positive and negative control, 10 mM valproic acid (20 µL) and buffer solution (20 µL) were used [Biol. Chem., 240:877-882].

Sequence of Aldo-keto reductase family 1 member A1 (Q3ZCJ2 whole entry): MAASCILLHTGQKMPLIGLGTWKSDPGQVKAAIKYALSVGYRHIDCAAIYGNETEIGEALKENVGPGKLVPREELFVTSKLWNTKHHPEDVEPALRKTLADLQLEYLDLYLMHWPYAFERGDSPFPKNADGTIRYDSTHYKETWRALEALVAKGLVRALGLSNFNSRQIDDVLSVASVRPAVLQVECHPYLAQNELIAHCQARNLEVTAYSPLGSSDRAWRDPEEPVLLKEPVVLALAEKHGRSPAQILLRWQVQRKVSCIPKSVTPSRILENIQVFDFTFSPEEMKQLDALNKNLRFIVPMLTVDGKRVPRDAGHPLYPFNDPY

Compound	IC50 [1] [µM]	IC50 [2] [µM]
CCCCNCn1nc(-c2cc3ccccc3oc2=O)oc1=S [3-(4-((Butylamino)methyl)-5-thioxo-4,5-dihydro-1,3,4-oxadiazol-2-yl)-2H-chromen-2-one (11b)]	57.5	3.36
C/C(=N\Nc1nc(-c2cc3ccccc3oc2=O)cs1)c1ccccc1Br [(E)-3-(2-(2-(1-(2-bromophenyl)ethylidene)hydrazinyl)thiazol-4-yl)-2H-chromen-2-one (6c)]	0.16	34.7
O=c1oc2ccccc2cc1-c1nn(CNc2cccc(Cl)c2)c(=S)o1 [3-(4-((3-Chlorophenylamino)methyl)-5-thioxo-4,5-dihydro-1,3,4-oxadiazol-2-yl)-2H-chromen-2-one (11e)]	–	15.2
O=c1oc2ccccc2cc1-c1nn(CN2CCOCC2)c(=S)o1 [3-(4-(Morpholinomethyl)-5-thioxo-4,5-dihydro-1,3,4-oxadiazol-2-yl)-2H-chromen-2-one (11g)]	0.34	–
COc1ccc(/C(C)=N/Nc2nc(-c3cc4ccccc4oc3=O)cs2)cc1 [(E)-3-(2-(2-(1-(4-methoxyphenyl)ethylidene)hydrazinyl)thiazol-4-yl)-2H-chromen-2-one (6h)]	–	7.62
COc1ccc(/C(C)=N/Nc2nc(-c3cc4ccccc4oc3=O)cs2)cc1I [(E)-3-(2-(2-(1-(3-iodo-4-methoxyphenyl)ethylidene)hydrazinyl)thiazol-4-yl)-2H-chromen-2-one (6l)]	–	14.4
O=c1oc2ccccc2cc1-c1nn(CNc2ccc(Cl)cc2)c(=S)o1 [3-(4-((4-Chlorophenylamino)methyl)-5-thioxo-4,5-dihydro-1,3,4-oxadiazol-2-yl)-2H-chromen-2-one (11f)]	3.39	5.68
C/C(=N\Nc1nc(-c2cc3ccccc3oc2=O)cs1)c1ccc(Br)cc1 [(E)-3-(2-(2-(1-(4-bromophenyl)ethylidene)hydrazinyl)thiazol-4-yl)-2H-chromen-2-one (6e)]	0.11	1.71
COc1ccc(/C(C)=N/Nc2nc(-c3cc4ccccc4oc3=O)cs2)cc1F [(E)-3-(2-(2-(1-(3-fluoro-4-methoxyphenyl)ethylidene)hydrazinyl)thiazol-4-yl)-2H-chromen-2-one (6i)]	–	1.08
C/C(=N\Nc1nc(-c2cc3ccccc3oc2=O)cs1)c1ccccc1F [(E)-3-(2-(2-(1-(2-fluorophenyl)ethylidene)hydrazinyl)thiazol-4-yl)-2H-chromen-2-one (6f)]	–	57.4
O=c1oc2ccccc2cc1-c1csc(NN=C(c2ccccc2)c2ccccc2)n1 [3-(2-(2-(diphenylmethylene)hydrazinyl)thiazol-4-yl)-2Hchromen-2-one (6n)]	–	17.1
O=c1oc2ccccc2cc1-c1nn(CN(c2ccccc2)c2ccccc2)c(=S)o1 [3-(4-((Diphenylamino)methyl)-5-thioxo-4,5-dihydro-1,3,4-oxadiazol-2-yl)-2H-chromen-2-one (11h)]	3.39	–
COc1ccc(/C(C)=N/Nc2nc(-c3cc4ccccc4oc3=O)cs2)c(O)c1 [(E)-3-(2-(2-(1-(2-hydroxy-4-methoxyphenyl)ethylidene)hydrazinyl)thiazol-4-yl)-2H-chromen-2-one (6j)]	–	5.47
C/C(=N\Nc1nc(-c2cc3ccccc3oc2=O)cs1)c1cc2ccccc2oc1=O [Coumarin-thiazole series I, 6o]	–	8.91
O=c1oc2ccccc2cc1-c1nn(CNc2ccccc2Cl)c(=S)o1 [3-(4-((2-Chlorophenylamino)methyl)-5-thioxo-4,5-dihydro-1,3,4-oxadiazol-2-yl)-2H-chromen-2-one (11d)]	0.31	–
COc1cc(/C(C)=N/Nc2nc(-c3cc4ccccc4oc3=O)cs2)ccc1O [(E)-3-(2-(2-(1-(4-hydroxy-3-methoxyphenyl)ethylidene)hydrazinyl)thiazol-4-yl)-2H-chromen-2-one (6k)]	1.76	1.41
C/C(=N\Nc1nc(-c2cc3ccccc3oc2=O)cs1)c1ccccc1 [Coumarin-thiazole series I, 6a]	0.12	2.94
C/C(=N\Nc1nc(-c2cc3ccccc3oc2=O)cs1)c1cccc(Br)c1 [(E)-3-(2-(2-(1-(3-bromophenyl)ethylidene)hydrazinyl)thiazol-4-yl)-2H-chromen-2-one (6d)]	6.35	93.6
CC1=C(CC(=O)O)c2cc(F)ccc2/C1=C\c1ccc([S@@+](C)[O-])cc1 [cis-5-Fluoro-2-methyl-1-((p-methylsulfinyl)benzylidene)indene-3-acetic acid]	0.293	–
Cc1ccc(NCn2nc(-c3cc4ccccc4oc3=O)oc2=S)cc1 [3-(4-((p-Toluidino)methyl)-5-thioxo-4,5-dihydro-1,3,4-oxadiazol-2-yl)-2H-chromen-2-one (11c)]	–	7.11
